According to patent US20200377459A1, “CHARGED ION CHANNEL BLOCKERS AND METHODS FOR USE” (President and Fellows of Harvard College, priority 2015, published 2020):

Experiments:
[1] = test system: paw incision-induced thermal hyperalgesia; test: Paw incision-induced thermal hyperalgesia; type: in vivo; details: rats, intradermal injection into the surgical wound, 1 and 3 hour post-treatment
Experimental: FIGS. 3A-3B are data showing reversal of paw incision-induced thermal hyperalgesia by charged sodium channel blockers. […] The data are means±SEM of 8 rats per group. The statistical comparison with the contralateral paw (*) is indicated by ***P<0.001. All procedures were approved by the Institutional Animal Care and Use Committees. Mice and rats were housed in standard environmental conditions (12-h light/dark cycle; 23° C.; food and water ad libitum) at facilities accredited by the Association for Assessment and Accreditation of Laboratory Animal Care. 8-week old male BALB/c (stock number: 001026) and C57BL/6J (stock number 000664) mice were purchased from Jackson Laboratory and respectively used in allergic airway inflammation (FIG. 5) and pain hypersensitivity model (FIGS. 2A-2D). 6-week old male Sprague-Dawley (stock number: 400) rats, 150±25 grams, were purchased from Charles River laboratory and used to assess pain hypersensitivity (FIG. 3). The compounds were injected in the plantar surface of each animal's right hind paw in 10 μl (mice) or 50 μl (rats) volume of 1:1 emulsion of Complete Freund's Adjuvant (CFA). […] On the 4th day, their thermal nociceptive threshold was evaluated. […] Impact of treatment was analyzed 1 h prior and 1, 3, 6 and 24 h post-treatment. […] With each reading the apparatus was set with a cut-off time of 32 s. […]

[2] = target: T1, human Nav1.7 channels (Homo sapiens, UniProt Q15858); test: Whole-cell patch clamp, use-dependent block of sodium current, drug applied intracellularly or externally; type: cell-based
T1 construct: expressed in transfected cells
T1 sequence (Q15858 whole entry): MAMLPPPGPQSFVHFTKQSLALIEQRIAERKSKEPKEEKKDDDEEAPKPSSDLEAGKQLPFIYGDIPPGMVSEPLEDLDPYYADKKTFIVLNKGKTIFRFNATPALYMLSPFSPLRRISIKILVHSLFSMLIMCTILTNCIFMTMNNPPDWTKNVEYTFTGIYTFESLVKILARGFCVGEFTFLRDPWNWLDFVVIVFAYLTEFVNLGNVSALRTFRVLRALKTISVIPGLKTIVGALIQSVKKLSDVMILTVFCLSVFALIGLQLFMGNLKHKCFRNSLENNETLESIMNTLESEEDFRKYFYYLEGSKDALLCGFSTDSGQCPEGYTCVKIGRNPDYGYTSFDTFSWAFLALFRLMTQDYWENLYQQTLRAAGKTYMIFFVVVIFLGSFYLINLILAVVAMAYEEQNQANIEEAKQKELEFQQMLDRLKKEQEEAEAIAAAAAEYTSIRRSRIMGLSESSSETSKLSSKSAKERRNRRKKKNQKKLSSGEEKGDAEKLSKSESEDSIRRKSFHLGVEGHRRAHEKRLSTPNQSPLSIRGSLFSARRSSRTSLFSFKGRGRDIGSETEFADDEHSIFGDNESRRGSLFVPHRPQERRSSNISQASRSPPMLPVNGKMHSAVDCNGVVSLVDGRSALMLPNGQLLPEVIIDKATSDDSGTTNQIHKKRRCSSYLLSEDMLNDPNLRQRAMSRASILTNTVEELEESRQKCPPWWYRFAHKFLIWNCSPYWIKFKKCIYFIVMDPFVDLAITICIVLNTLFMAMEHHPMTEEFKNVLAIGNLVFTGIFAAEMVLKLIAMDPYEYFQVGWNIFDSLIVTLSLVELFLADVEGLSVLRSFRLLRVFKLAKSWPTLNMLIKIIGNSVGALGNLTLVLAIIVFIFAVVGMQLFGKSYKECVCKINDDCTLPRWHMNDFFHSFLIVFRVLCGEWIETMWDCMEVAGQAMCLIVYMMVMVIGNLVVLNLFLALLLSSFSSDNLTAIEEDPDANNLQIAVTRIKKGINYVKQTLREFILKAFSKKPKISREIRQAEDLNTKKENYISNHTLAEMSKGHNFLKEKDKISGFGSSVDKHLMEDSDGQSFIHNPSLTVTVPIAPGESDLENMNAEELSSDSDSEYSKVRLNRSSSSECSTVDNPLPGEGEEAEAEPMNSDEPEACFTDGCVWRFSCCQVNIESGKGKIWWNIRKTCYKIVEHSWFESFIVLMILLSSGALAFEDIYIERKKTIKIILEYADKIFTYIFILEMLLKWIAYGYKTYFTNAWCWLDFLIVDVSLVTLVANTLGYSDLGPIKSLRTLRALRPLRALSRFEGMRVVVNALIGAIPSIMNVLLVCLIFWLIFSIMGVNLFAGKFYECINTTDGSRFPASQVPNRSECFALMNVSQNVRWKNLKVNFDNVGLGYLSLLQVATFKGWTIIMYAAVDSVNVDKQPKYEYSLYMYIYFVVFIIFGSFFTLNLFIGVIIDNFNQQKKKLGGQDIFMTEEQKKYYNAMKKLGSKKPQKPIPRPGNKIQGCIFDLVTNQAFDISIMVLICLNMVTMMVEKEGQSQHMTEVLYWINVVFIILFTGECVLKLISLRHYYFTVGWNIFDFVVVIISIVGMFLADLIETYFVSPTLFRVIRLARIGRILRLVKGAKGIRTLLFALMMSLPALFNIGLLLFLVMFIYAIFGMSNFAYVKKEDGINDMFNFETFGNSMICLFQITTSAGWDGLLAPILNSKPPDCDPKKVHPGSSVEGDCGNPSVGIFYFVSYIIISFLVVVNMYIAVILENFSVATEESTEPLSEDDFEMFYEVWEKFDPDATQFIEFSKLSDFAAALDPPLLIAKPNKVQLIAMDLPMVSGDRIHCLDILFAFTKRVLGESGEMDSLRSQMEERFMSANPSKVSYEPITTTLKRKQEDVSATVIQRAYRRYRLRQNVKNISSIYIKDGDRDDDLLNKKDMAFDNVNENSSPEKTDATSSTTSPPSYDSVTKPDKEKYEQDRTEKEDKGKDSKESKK
Experimental: Whole-cell recordings were made of currents carried by voltage-activated channels in HEK293 cells stably expressing human Nav1.7 channels. Recordings were made using patch pipettes with resistances of 2-3.5 MQ when filled with internal solution, consisting of 61 mM CsF, 61 mM CsCl, 9 mM NaCl, 1.8 mM MgCl2, 9 mM EGTA, 14 mM creatine phosphate (tris salt), 4 mM MgATP, and 0.3 mM GTP (tris salt), 9 mM HEPES, pH adjusted to 7.2 with CsOH. The shank of the electrode was wrapped with Parafilm in order to reduce capacitance and allow optimal series resistance compensation without oscillation. Seals were obtained and the whole-cell configuration established with cells in Tyrode's solution (155 mM NaCl, 3.5 mM KCl, 1.5 mM CaCl2), 1 mM MgCl2, 10 mM HEPES, 10 mM glucose, pH adjusted to 7.4 with NaOH) with 10 mM TEACl. To ensure complete dialysis with pipette solution, recordings began after 5 to 10 min after establishment of the whole-cell configuration.
Currents were recorded at room temperature (21-23° C.) with an Axopatch 200 amplifier and filtered at 5 kHz with a low-pass Bessel filter. The amplifier was tuned for partial compensation of series resistance (typically 70-80% of a total series resistance of 4-10 MO). Currents were digitized using a Digidata 1322A data acquisition interface controlled by pClamp9.2 software (Axon Instruments) and analyzed using programs written in Igor Pro 4.0 (Wavemetrics, Lake Oswego, Oreg.). Currents were corrected for linear capacitative and leak currents determined using 5 mV hyperpolarizations delivered from the resting potential (usually −80 or −100 mV) and then appropriately scaled and subtracted.
Sodium currents were evoked by 30-msec depolarizations from −100 mV to −20 mV. To assay use-dependent block, pulses were delivered at series of increasing rates: 0.05 Hz for 1-min, 0.33 Hz for 1-min, 1 Hz for 1-min, 3 Hz for 1-min, 5 Hz for 30 seconds, 10 Hz for 30 seconds, with 1 minute rest between each series of pulses. After the series of pulses to induce use-dependent block, the time course of recovery was followed using pulses delivered at 01. Hz (2-min) and 0.05 Hz (1-min).
To induce use-dependent block, the depolarizations were delivered by series of increasing rates: 0.05 Hz for 1-min, 0.33 Hz for 1-min, 1 Hz for 1-min, 3 Hz for 1-min, 5 Hz for 30 seconds, 10 Hz for 30 seconds, with 1 minute rest between each series of pulses. After the series of pulses to induce use-dependent block, the time course of recovery was followed using pulses delivered at 01. Hz (2-min) and 0.05 Hz (1-min). Peak sodium current was plotted as a function of experimental time (1-min per division on the time axis).

[3] = test system: thermal nociceptive threshold; test: Thermal nociceptive threshold after acute intraplantar injection in naive animals; type: in vivo, rats; details: for difference in thermal nociceptive threshold between contralateral and injected paw: rats, acute intraplantar injection 50 μl, 0.5%, no injury

SMILES | thermal hyperalgesia after surgical incision versus contralateral paw [1] | inhibition at 100 µM [2] | long lasting analgesia in naïve animals ([3]; naïve animals) | difference in thermal nociceptive threshold between contralateral and injected paw [3] | use dependent accumulation of block ([2]; 100 micromolar inside cell, stimulation frequencies from 1 to 10 Hz)
CCC[N+](CC)(CC)C(CC)C(=O)Nc1c(C)cccc1C (stereo not shown) [Compound 21, N-ethyl etidocaine] | absent | 97% | without long lasting analgesia | no differences | 
CC[N+](CC)(CC)CC(=O)Nc1c(C)cccc1C [QX-314, reference compound] | absent |  |  | no differences | strong use dependent accumulation of block
